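Each compound was tested at five concentrations against cells in 96-well plates for 48 hours. TGI is the concentration that stops growth completely.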
Tests used:
Assay in all cases: inhibition of tumour cell growth, NCI panel, 48 h
[1] = tested on: HCC-2998 colon
[2] = tested on: KM12 colon
[3] = tested on: SF-268 CNS
[4] = tested on: COLO 205 colon
[5] = tested on: UACC-62 melanoma
[6] = tested on: ACHN renal
[7] = tested on: OVCAR-5 ovarian
[8] = tested on: SW-620 colon
[9] = tested on: K-562 leukemia
[10] = tested on: HCT-116 colon
[11] = tested on: NCI/ADR-RES ovarian
[12] = tested on: SF-539 CNS
[13] = tested on: OVCAR-8 ovarian
[14] = tested on: MOLT-4 leukemia
[15] = tested on: HOP-62 NSCLC
[16] = tested on: CCRF-CEM leukemia
[17] = tested on: SNB-75 CNS
[18] = tested on: BT-549 breast
[19] = tested on: EKVX NSCLC
[20] = tested on: NCI-H23 lung
[21] = tested on: IGROV1 ovarian
[22] = tested on: NCI-H460 lung
[23] = tested on: HS 578T breast
[24] = tested on: T-47D breast
[25] = tested on: HCT-15 colon
[26] = tested on: SK-MEL-28 melanoma
[27] = tested on: OVCAR-3 ovarian
[28] = tested on: MDA-MB-231 breast
[29] = tested on: 786-0 renal
[30] = tested on: UO-31 renal
[31] = tested on: DU-145 prostate
[32] = tested on: A549 NSCLC
[33] = tested on: HT29 colon
[34] = tested on: NCI-H226 lung
[35] = tested on: RXF 393 renal
[36] = tested on: SK-MEL-5 melanoma
[37] = tested on: CAKI-1 renal
[38] = tested on: NCI-H522 lung
[39] = tested on: MALME-3M melanoma
[40] = tested on: HOP-92 NSCLC
[41] = tested on: SK-MEL-2 melanoma
[42] = tested on: SF-295 CNS
[43] = tested on: PC-3 prostate
[44] = tested on: UACC-257 melanoma
[45] = tested on: SN12C renal
[46] = tested on: OVCAR-4 ovarian
[47] = tested on: RPMI-8226 leukemia
[48] = tested on: TK-10 renal
[49] = tested on: M14 melanoma
[50] = tested on: U251 CNS
[51] = tested on: SK-OV-3 ovarian
[52] = tested on: HL-60(TB) leukemia
[53] = tested on: LOX IMVI melanoma
[54] = tested on: MDA-MB-435
[55] = tested on: MCF7 breast
[56] = tested on: A498 renal
[57] = tested on: SNB-19 CNS
[58] = tested on: SR leukemia

Compound: CC(C)(C)c1ccc(O)c(C(O)c2cccnc2)c1 (centres undefined)
- TGI [1]: > 100 µM
- TGI [2]: > 100 µM
- TGI [3]: > 100 µM
- TGI [4]: > 100 µM
- TGI [5]: > 100 µM
- TGI [6]: > 100 µM
- TGI [7]: > 100 µM
- TGI [8]: > 100 µM
- TGI [9]: > 100 µM
- TGI [10]: > 100 µM
- TGI [11]: > 100 µM
- TGI [12]: > 100 µM
- TGI [13]: > 100 µM
- TGI [14]: > 100 µM
- TGI [15]: > 100 µM
- TGI [16]: > 100 µM
- TGI [17]: > 100 µM
- TGI [18]: > 100 µM
- TGI [19]: > 100 µM
- TGI [20]: > 100 µM
- TGI [21]: > 100 µM
- TGI [22]: > 100 µM
- TGI [23]: > 100 µM
- TGI [24]: 53.7 µM
- TGI [25]: > 100 µM
- TGI [26]: > 100 µM
- TGI [27]: > 100 µM
- TGI [28]: > 100 µM
- TGI [29]: > 100 µM
- TGI [30]: > 100 µM
- TGI [31]: > 100 µM
- TGI [32]: > 100 µM
- TGI [33]: > 100 µM
- TGI [34]: > 100 µM
- TGI [35]: > 100 µM
- TGI [36]: > 100 µM
- TGI [37]: > 100 µM
- TGI [38]: > 100 µM
- TGI [39]: > 100 µM

Compound: N#CI1OC(C(F)(F)F)(C(F)(F)F)c2ccccc21
- TGI [40]: 42.5 µM
- TGI [1]: 36.1 µM
- TGI [2]: 35.5 µM
- TGI [3]: 73.9 µM
- TGI [4]: 26.8 µM
- TGI [41]: 30.5 µM
- TGI [5]: 38.8 µM
- TGI [6]: 36.9 µM
- TGI [7]: 36.6 µM
- TGI [42]: > 100 µM
- TGI [43]: 30.1 µM
- TGI [44]: 51.8 µM
- TGI [9]: > 100 µM
- TGI [10]: 30.4 µM
- TGI [11]: 40.3 µM
- TGI [12]: 36.9 µM
- TGI [13]: 30.5 µM
- TGI [15]: > 100 µM
- TGI [16]: > 100 µM
- TGI [17]: 32.4 µM
- TGI [18]: 40.9 µM
- TGI [45]: 68 µM
- TGI [19]: 30.1 µM
- TGI [46]: 30.6 µM
- TGI [20]: 36 µM
- TGI [21]: 31.8 µM
- TGI [22]: 72.5 µM
- TGI [47]: > 100 µM
- TGI [48]: 39.1 µM
- TGI [49]: 36.2 µM
- TGI [50]: 52.5 µM
- TGI [51]: > 100 µM
- TGI [24]: 49.3 µM
- TGI [25]: 32.6 µM
- TGI [52]: > 100 µM
- TGI [26]: 37.4 µM
- TGI [53]: 43.3 µM
- TGI [54]: 38.4 µM
- TGI [55]: 42.3 µM
- TGI [27]: 29.2 µM
- TGI [28]: 54.7 µM
- TGI [29]: 27.2 µM
- TGI [30]: 28.6 µM
- TGI [31]: 38.4 µM
- TGI [32]: > 100 µM
- TGI [33]: 40.8 µM
- TGI [56]: > 100 µM
- TGI [34]: 49 µM
- TGI [35]: 32.4 µM
- TGI [36]: 33.8 µM
- TGI [37]: 28 µM
- TGI [38]: 27.3 µM

Compound: CCCCC(=O)OC[n+]1ccc2c(C)c3[nH]c4ccc(OC)cc4c3c(C)c2c1
- TGI [1]: 1.8 µM
- TGI [3]: > 100 µM
- TGI [41]: > 100 µM
- TGI [6]: 3.84 µM
- TGI [57]: 4.35 µM
- TGI [7]: 5.61 µM
- TGI [44]: > 34.4 µM
- TGI [10]: 1.37 µM
- TGI [12]: 1.92 µM
- TGI [14]: 1.13 µM
- TGI [17]: 27.2 µM
- TGI [19]: 3.6 µM
- TGI [47]: 0.983 µM
- TGI [48]: 15.2 µM
- TGI [23]: 2.73 µM
- TGI [58]: 1.04 µM
- TGI [51]: 2.93 µM
- TGI [24]: 14.2 µM
- TGI [52]: > 100 µM
- TGI [30]: 4.08 µM
- TGI [31]: 4.82 µM
- TGI [37]: 4.64 µM
- TGI [39]: > 33.3 µM
